Assay results from US4923880A, “4,5,6,7-Tetrahydroisothiazolo (4,5-c) pyridine derivatives” (H. Lundbeck A/S, priority 1988, dated 1990).
Counter-ions that a name gives are not always drawn. Like-named read-outs stand apart in the source and are kept apart here.

Key:
[1] = target: central cholinergic receptors; assay: 3H-oxotremorine M binding (displacement from rat brain homogenates); settings: rat brain homogenate, 40 min at 30° C., pH 7.4, read-out: 3H-Oxo-M IC50
Description: The new compounds have high affinity to central cholinergic receptors, as measured by the ability of the compounds to displace tritiated oxotremorine-M from rat brain homogenates. The compounds have also high affinity to central muscarinic M-1 receptors, as defined by their ability to displace tritiated pirenzepine from rat brain homogenates. […]
^3 H-oxotremorine M binding was performed essentially as described by Birdsdall et al., 1980. Briefly, rat brains were homogenized in 100 vol (w/v) 10 mM Na,K-phosphate buffer (pH 7.4) and aliquots incubated with ^3 H-oxotremorine M (84.9 Ci/mmol, NEN) alone or in the presence of test compound in a total volume of 1.5 ml for 40 min. at 30° C. The reaction was stopped by adding 5 ml ice-cold buffer and filtered through Whatman GF/B filters soaked previously in 0.1% polyethylenimin (Sigma) for minimum 30 min. The filters were washed once with the same volume of buffer, transferred to scintillation vials and extracted in scintillation fluid (Pico-fluor 15, Packard) for at least two hours before counted in a liquid scintillation spectrometer (Beckman LS 1800). Non-specific binding was estimated at 10 μM atropine and all estimations made in triplicate. At least two displacement curves were made for each compound tested.

[2] = target: T1, central muscarinic M-1 receptors (Rattus norvegicus, UniProt P08482); assay: biochemical; assay type: binding; settings: rat brain homogenate, 1.0 nM 3H-pirenzepine, 60 min at 25° C.
T1 sequence (P08482 1-460): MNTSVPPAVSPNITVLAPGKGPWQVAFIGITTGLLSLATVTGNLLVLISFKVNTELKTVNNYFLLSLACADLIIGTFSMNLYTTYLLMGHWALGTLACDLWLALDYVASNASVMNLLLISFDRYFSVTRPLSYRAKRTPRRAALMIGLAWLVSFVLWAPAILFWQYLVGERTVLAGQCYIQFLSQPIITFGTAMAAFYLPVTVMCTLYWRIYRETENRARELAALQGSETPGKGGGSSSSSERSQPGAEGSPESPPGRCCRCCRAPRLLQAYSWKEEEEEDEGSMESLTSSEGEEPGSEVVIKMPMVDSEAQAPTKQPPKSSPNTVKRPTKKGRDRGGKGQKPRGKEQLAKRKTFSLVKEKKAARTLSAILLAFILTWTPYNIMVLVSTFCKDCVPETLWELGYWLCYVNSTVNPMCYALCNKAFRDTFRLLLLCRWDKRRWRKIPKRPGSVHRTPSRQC
Description: ^3 H-pirenzepine binding was performed essentially as described by Watson et al., 1983, the conditions being very much the same as for ^3 H-oxotremorine binding, except that aliquots were incubated with 1.0 nM ^3 H-pirenzepine for 60 min. at 25° C. and that the reaction was stopped by direct filtration followed by 3 washes with 4 ml buffer.

[3] = after peripheral administration; cited from earlier work
[4] = after peripheral administration; cited from earlier work; remark: listed apart in the source
[5] = cited from earlier work

Row | Structure (SMILES) | IC50 [2] | IC50 [1] | also measured
1 | C#CCOc1nsc2c1CN(C)CC2C (single isomer, unassigned; (-)) [Compound 24, (-)-5,7-Dimethyl-3-(2-propynyloxy)-4,5,6,7-tetrahydroisothiazolo[4,5-c]pyridine, oxalate] | 4.3 nM | – | IC50 ([1]; oxalate): 3.8 nM
2 | C#CCOc1nsc2c1CNCC2C (single isomer, unassigned; (-)) [Compound 21, (-)-7-Methyl-3-(2-propynyloxy)-4,5,6,7-tetrahydroisothiazolo[4,5-c]pyridine, fumarate] | 8.1 nM | – | IC50 ([1]; fumarate): 0.93 nM
3 | C#CCOc1nsc2c1CNCC2C (stereo not shown) [Compound 19, 7-Methyl-3-(2-propynyloxy)-4,5,6,7-tetrahydroisothiazolo[4,5-c]pyridine, fumarate] | 6.9 nM | 1.8 nM | –
4 | COc1nsc2c1CNCC2C (stereo not shown) [Compound 18, 3-Methoxy-7-methyl-4,5,6,7-tetrahydroisothiazolo[4,5-c]pyridine, fumarate] | 130 nM | 24 nM | –
5 | C=CCOc1nsc2c1CNCC2C (stereo not drawn) [Compound 25, (-+)-7-Methyl-3-(2-propenyloxy)-4,5,6,7-tetrahydroisothiazolo[4,5-c]pyridine, fumarate] | 11 nM | 5.3 nM | –
6 | C#CCOc1nsc2c1CN(C)CC2C (single isomer, unassigned; (+)) [Compound 23, (+)-5,7-Dimethyl-3-(2-propynyloxy)-4,5,6,7-tetrahydroisothiazolo[4,5-c]pyridine, oxalate] | 14 nM | – | IC50 ([1]; oxalate): 18 nM
7 | C#CCOc1nsc2c1CNCC2 [Compound 8, 3-(2-Propynyloxy)-4,5,6,7-tetrahydroisothiazole[4,5-c]pyridine, hemifumarate] | 53 nM | 6.3 nM | –
8 | C#CCOc1nsc2c1CNCC2C (single isomer, unassigned; (+)) [Compound 20, (+)-7-Methyl-3-(2-propynyloxy)-4,5,6,7-tetrahydroisothiazolo[4,5-c]pyridine, fumarate] | 5.5 nM | – | IC50 ([1]; fumarate): 1.6 nM
9 | COC(=O)C1=CCCN(C)C1 [Arecoline, methyl 1-methyl-1,2,5,6-tetrahydropyridine-3-carboxylate] | – | 1.9 nM | penetration of the BBB [3]: capable of penetrating the BBB after peripheral administration; central effects [4]: very weak and frequently negligible central effects; hydrolysis of the ester group in vivo [5]: very rapidly hydrolyzed in vivo
10 | C#CCOc1noc2c1CNCC2C (single isomer, unassigned; (+)) [(+)-O-propargyl-7-Me-THPO, (+)7-methyl-3-(2-propynyloxy)-4,5,6,7-tetrahydroisoxazolo[4,5c]pyridine, reference compound] | 61 nM | 18 nM | –
11 | COc1nsc2c1CNCC2 [Compound 3, 3-Methoxy-4,5,6,7-tetrahydroisothiazole[4,5-c]pyridine Hydrochloride] | 1700 nM | 18 nM | –
12 | CCOc1nsc2c1CNCC2 [Compound 5, 3-Ethoxy-4,5,6,7-tetrahydroisothiazolo[4,5-c]pyridine, maleate] | 370 nM | 29 nM | –
13 | C#CCOc1nsc2c1CN(C)CC2C (stereo not drawn) [Compound 22, (-+)-5,7-Dimethyl-3-(2-propynyloxy)-4,5,6,7-tetrahydroisothiazolo[4,5-c]pyridine, oxalate] | 6.7 nM | 5.3 nM | –
